From US20170114049A1, “2,5-DISUBSTITUTED CYCLOPENTANE CARBOXYLIC ACIDS FOR THE TREATMENT OF RESPIRATORY TRACT DISEASES” (BAYER PHARMA AKTIENGESELLSCHAFT, priority 2014, published 2017)
Read-outs that look alike come from different tables or passages of the source.

Legend:
Assay type in all cases: biochemical
MMP-13 = target: T1, MMP-13 (Homo sapiens, UniProt P45452); test: In vitro MMP-13 inhibition test
T1 construct: purchased R&D Systems 511-MP
Description: (§1) The MMP-mediated amidolytic cleavage of a suitable peptide substrate leads to an increase in fluorescent light here too. The signal intensity of the fluorescent light is directly proportional to the enzyme activity. The active concentration of a test compound at which half the enzyme is inhibited (50% signal intensity of the fluorescent light) is reported as the 1050 value.
(§2) Recombinant MMP-13 (from R&D Systems, 511-MP) is chemically activated in accordance with the manufacturer's instructions using APMA. 1 μl of the test compound to be analysed (as a solution in DMSO, suitable concentrations, for example, 1 nM to 30 μM) is pipetted into 24 μl of activated enzyme (final concentration, for example, 0.1 nM) in reaction buffer (50 mM Tris/HCl pH 7.5, 10 mM CaCl2, 150 mM NaCl, 0.05% Brij®-35) in a white 384-hole microtiter plate (MTP). The enzymatic reaction is started by adding the intramolecularly quenched Mca-Pro-Leu-Gly-Leu-Dpa(Dnp)-Ala-Arg-NH2 substrate (final concentration, for example, 10 μM; R&D Systems, ES-001), so as to result in a total test volume of 50 μl. The course of the MMP-13 reaction is measured by measuring the fluorescence intensity (excitation 320 nm, emission 410 nm) over a suitable period of time (for example over 120 min at a temperature of 32° C.).

[1] = target: T2, human macrophage elastase (HME/hMMP-12) (Homo sapiens, UniProt P39900); test: In vitro HME inhibition test (standard or high-sensitivity)
T2 construct: 0.5 nM HME; purchased R&D Systems 917-MP
Experimental: as §1, with “potency of the compounds according to the invention with respect to HME (MMP-12) is determined in an in vitro inhibition test. The HME-mediated” for “MMP-mediated”, “therein.” for “here too.”, “IC50” for “1050”
In a 384 hole microtiter plate, in a total test volume of 41 μl, the test buffer (0.1 M HEPES pH 7.4, 0.15 M NaCl, 0.03 M CaCl2, 0.004 mM ZnCl2, 0.02 M EDTA, 0.005% Brij®), the enzyme (0.5 nM HME; from R&D Systems, 917-MP, autocatalytic activation according to the manufacturer's instructions) and the intramolecularly quenched substrate [5 μM Mca-Pro-Leu-Gly-Leu-Glu-Glu-Ala-Dap(Dnp)-NH2; Bachem, M-2670] are incubated in the absence and presence of the test substance (as a solution in DMSO) at 37° C. for two hours. The fluorescence intensity of the test mixtures is measured (excitation […], emission 393 nm). The IC50 values are ascertained by plotting the fluorescent light intensity against the active ingredient concentration.
In this case, an enzyme concentration ten times lower is used (final concentration, for example, 0.05 nM) in order to achieve an elevated test sensitivity. The incubation period chosen for the test is correspondingly longer (for example 16 hours).

MMP-7 = target: T3, MMP-7 (Homo sapiens, UniProt P09237); test: In vitro MMP-7 inhibition test
T3 construct: purchased R&D Systems 907-MP
T3 sequence (P09237 95-267): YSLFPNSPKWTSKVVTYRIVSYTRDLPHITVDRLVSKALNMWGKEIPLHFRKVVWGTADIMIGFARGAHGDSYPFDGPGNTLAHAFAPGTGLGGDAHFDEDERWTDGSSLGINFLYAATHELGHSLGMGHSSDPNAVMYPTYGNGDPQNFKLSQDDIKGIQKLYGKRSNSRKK
Description: as §1
as §2, with “MMP-7” for “MMP-13”, “907-MP)” for “511-MP)”, “0.5” for “0.1”

mouse MMP-3 = target: T4, mouse MMP-3 (Mus musculus, UniProt P28862); test: In vitro mouse MMP-3 inhibition test
T4 construct: purchased R&D Systems 548-MP

[2] = absence of serum albumin (BSA), read-out: HME IC50 (−BSA)
[3] = standard or high-sensitivity HME inhibition test, read-out: HME/hMMP-12 IC50

T2 sequence (P39900 106-470): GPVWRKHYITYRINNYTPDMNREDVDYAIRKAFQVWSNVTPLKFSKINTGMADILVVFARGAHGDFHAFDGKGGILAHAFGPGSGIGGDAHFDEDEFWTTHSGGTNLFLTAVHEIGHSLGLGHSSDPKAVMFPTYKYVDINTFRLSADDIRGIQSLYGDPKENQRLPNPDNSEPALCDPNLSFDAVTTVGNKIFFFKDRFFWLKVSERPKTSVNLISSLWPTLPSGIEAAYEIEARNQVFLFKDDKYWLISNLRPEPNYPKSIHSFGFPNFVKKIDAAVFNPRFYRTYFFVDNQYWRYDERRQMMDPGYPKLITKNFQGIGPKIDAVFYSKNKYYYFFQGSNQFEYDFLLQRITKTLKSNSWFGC
T4 sequence (P28862 100-477): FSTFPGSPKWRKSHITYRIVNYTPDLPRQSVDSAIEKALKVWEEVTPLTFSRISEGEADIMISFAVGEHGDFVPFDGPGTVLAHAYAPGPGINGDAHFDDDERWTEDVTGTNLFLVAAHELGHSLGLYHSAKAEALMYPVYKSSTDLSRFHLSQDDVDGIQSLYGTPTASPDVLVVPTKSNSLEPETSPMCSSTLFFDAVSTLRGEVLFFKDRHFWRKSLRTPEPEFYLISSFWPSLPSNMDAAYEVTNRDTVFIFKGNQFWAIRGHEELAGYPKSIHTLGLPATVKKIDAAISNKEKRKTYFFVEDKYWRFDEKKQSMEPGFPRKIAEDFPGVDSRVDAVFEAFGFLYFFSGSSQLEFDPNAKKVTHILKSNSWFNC

With O=C(O)[C@@H]1[C@@H](Cn2nnc3ccc(C(F)(F)F)cc3c2=O)CC[C@H]1C(=O)c1ccc(SCC2CCOCC2)cc1 (single isomer, unassigned) [Example 15, (+)-(1RS,2SR,5RS)-2-{[4-Oxo-6-(trifluoromethyl)-1,2,3-benzotriazin-3(4H)-yl]methyl}-5-{4-[(tetrahydro-2H-pyran-4-ylmethyl)sulphanyl]benzoyl}cyclopentanecarboxylic acid] the IC50 (MMP-13) was 220 nM, the IC50 [1, 2] was 0.026 nM and the IC50 [1, 3] was 0.026 nM. It also gave an IC50 (MMP-7) of 80 nM.

Cc1ccc2nnn(C[C@H]3CC[C@@H](C(=O)c4ccc(OCCC5CCOCC5)cc4)[C@@H]3C(=O)O)c(=O)c2c1 (single isomer, unassigned) [Example 20, (+)-(1RS,2SR,5RS)-2-[(6-Methyl-4-oxo-1,2,3-benzotriazin-3(4H)-yl)methyl]-5-{4-[2-(tetrahydro-2H-pyran-4-yl)ethoxy]benzoyl}cyclopentanecarboxylic acid] gave an IC50 (MMP-13) of 170 nM, an IC50 [1, 2] of 0.053 nM and an IC50 [1, 3] of 0.053 nM. The IC50 (mouse MMP-3) was 670 nM and the IC50 (MMP-7) was 290 nM.

O=C(O)[C@H]1[C@H](Cn2nnc3ccccc3c2=O)CC[C@@H]1C(=O)c1ccc(OCCC2CCOCC2)cc1 (stereo in doubt) [Example 4, (+/−)-(1RS,2SR,5RS)-2-[(4-Oxo-1,2,3-benzotriazin-3(4H)-yl)methyl]-5-{4-[2-(tetrahydro-2H-pyran-4-yl)ethoxy]benzoyl}cyclopentanecarboxylic acid] was tested, and the IC50 (MMP-13) was 460 nM, the IC50 [1, 2] was 0.37 nM and the IC50 [1, 3] was 0.37 nM. It also gave an IC50 (mouse MMP-3) of 4000 nM and an IC50 (MMP-7) of 3200 nM.

O=C(O)[C@H]1[C@H](Cn2nnc3ccccc3c2=O)CC[C@@H]1C(=O)c1ccc(OCC2CCOCC2)cc1 (stereo in doubt) [Example 1, (+/−)-(1RS,2SR,5RS)-2-[(4-Oxo-1,2,3-benzotriazin-3(4H)-yl)methyl]-5-[4-(tetrahydro-2H-pyran-4-ylmethoxy)benzoyl]cyclopentanecarboxylic acid] was tested, and the IC50 (MMP-13) was 110 nM, the IC50 [1, 2] was 0.04 nM and the IC50 [1, 3] was 0.04 nM. For the same compound, the IC50 (mouse MMP-3) was 570 nM and the IC50 (MMP-7) was 1200 nM.

“(+)-(1RS,2SR,5RS)-2-{[4-Oxo-6-(trifluoromethyl)-1,2,3-benzotriazin-3(4H)-yl]methyl}-5-[4-(tetra-hydro-2H-pyran-4-ylmethoxy)benzoyl]cyclopentanecarboxylic acid [Example 8]” gave an IC50 (MMP-13) of 51 nM, an IC50 [1, 2] of 0.016 nM and an IC50 [1, 3] of 0.016 nM. For the same compound, the IC50 (MMP-7) was 45 nM.

With O=C(O)[C@H]1[C@H](Cn2nnc3ccc(C(F)(F)F)cc3c2=O)CC[C@@H]1C(=O)c1ccc(OCC2CCOCC2)cc1 (racemic) [Example 7, (+/−)-(1RS,2SR,5RS)-2-{[4-Oxo-6-(trifluoromethyl)-1,2,3-benzotriazin-3(4H)-yl]methyl}-5-[4-(tetrahydro-2H-pyran-4-ylmethoxy)benzoyl]cyclopentanecarboxylic acid] the IC50 (MMP-13) was 140 nM, the IC50 [1, 3] was 0.031 nM and the IC50 (MMP-7) was 130 nM.

Work on O=C(O)[C@@H]1[C@@H](Cn2nnc3ccc(C(F)(F)F)cc3c2=O)CC[C@H]1C(=O)c1ccc(OCCC2CCOCC2)cc1 (single isomer, unassigned) [Example 11, (+)-(1RS,2SR,5RS)-2-{[4-Oxo-6-(trifluoromethyl)-1,2,3-benzotriazin-3(4H)-yl]methyl}-5-{4-[2-(tetrahydro-2H-pyran-4-yl)ethoxy]benzoyl}cyclopentanecarboxylic acid] yielded an IC50 (MMP-13) of 470 nM, an IC50 [1, 2] of 0.19 nM and an IC50 [1, 3] of 0.19 nM. The IC50 (mouse MMP-3) was 620 nM and the IC50 (MMP-7) was 190 nM.

O=C(O)[C@H]1[C@H](Cn2nnc3ccc(C(F)(F)F)cc3c2=O)CC[C@@H]1C(=O)c1ccc(OCCC2CCOCC2)cc1 (stereo in doubt) [Example 10, (+/−)-(1RS ,2S R,5RS)-2-{[4-Oxo-6-(trifluoromethyl)-1,2,3-benzotriazin-3(4H)-yl]methyl}-5-{4-[2-(tetrahydro-2H-pyran-4-yl)ethoxy]benzoyl}cyclopentanecarboxylic acid] was tested, and the IC50 (MMP-13) was 230 nM, the IC50 [1, 3] was 0.021 nM and the IC50 (mouse MMP-3) was 120 nM. For the same compound, the IC50 (MMP-7) was 96 nM.

O=C(O)[C@@H]1[C@@H](Cn2nnc3ccccc3c2=O)CC[C@H]1C(=O)c1ccc(OCC2CCOCC2)cc1 (stereo in doubt) [Example 2, (+)-(1RS,2SR,5RS)-2-[(4-Oxo-1,2,3-benzotriazin-3(4H)-yl)methyl]-5-[4-(tetrahydro-2H-pyran-4-ylmethoxy)benzoyl]cyclopentanecarboxylic acid] was tested, and the IC50 (MMP-13) was 49 nM, the IC50 [1, 2] was 0.071 nM and the IC50 [1, 3] was 0.071 nM. It also gave an IC50 (mouse MMP-3) of 710 nM and an IC50 (MMP-7) of 640 nM.

Work on Cc1ccc2nnn(C[C@@H]3CC[C@H](C(=O)c4ccc(OCCC5CCOCC5)cc4)[C@H]3C(=O)O)c(=O)c2c1 (racemic) [Example 19, (+/−)-(1RS,2SR,5RS)-2-[(6-Methyl-4-oxo-1,2,3-benzotriazin-3(4H)-yl)methyl]-5-{4-[2-(letrahydro-2H-pyran-4-yl)ethoxy]benzoyl}cyclopentanecarboxylic acid] yielded an IC50 (MMP-13) of 590 nM, an IC50 [1, 2] of 0.12 nM and an IC50 [1, 3] of 0.12 nM. For the same compound, the IC50 (mouse MMP-3) was 3100 nM and the IC50 (MMP-7) was 1100 nM.

O=C(O)[C@@H]1[C@@H](Cn2nnc3ccccc3c2=O)CC[C@H]1C(=O)c1ccc(OCCC2CCOCC2)cc1 (single isomer, unassigned) [Example 5, (+)-(1RS,2SR,5RS)-2-[(4-Oxo-1,2,3-benzotriazin-3(4H)-yl)methyl]-5-{4-[2-(tetrahydro-2H-pyran-4-yl)ethoxy]benzoyl}cyclopentanecarboxylic acid] was tested, and the IC50 (MMP-13) was 67 nM, the IC50 [1, 2] was 0.085 nM and the IC50 [1, 3] was 0.085 nM. For the same compound, the IC50 (mouse MMP-3) was 270 nM and the IC50 (MMP-7) was 600 nM.
